Experimental data as given in patent US12419870B2, “Compositions and methods for immune cell modulation in adoptive immunotherapies” (Fate Therapeutics, Inc., priority 2016, dated 2025).
Counter-ions that a name gives are not always drawn.

Key:
viable CD8+ population = assay: In vitro T cell culture compound screen, flow cytometry for cells co-expressing CCR7 and CD62L in CD8+ cells; type: cell-based, human; conditions: 10 μM, about 6 days; for CD8 Hit: anti-CD3/anti-CD28 beads, hit criteria: Z-score > +2 for percent or relative absolute number of CCR7+CD62L+ cells; for number or ratio of cells co-expressing CCR7 and CD62L: viable CD8+ population
From the text: (§1) In Vitro T Cell Culture. Fresh leukopaks (AllCells, Alameda, CA) were obtained from healthy donors, from which T cells were negatively selected using the EasySep Human T Cell Enrichment Kit (Stem Cell Technologies, Vancouver, Canada). The freshly isolated T cells were aliquoted and cryopreserved. On the day the screens were initiated, T cells were thawed and washed into X-Vivo 15 with 5% human AB serum, IL-2, pen/strep, and additional supplements. Cells were dispensed into flat-bottom 384-well plates at 5×10^5 cells/ml with anti-CD3/Anti-CD28 dynabeads (ThermoFisher, Waltham, MA) at a 3:1 bead-to-cell ratio. Individual compounds were added at a final concentration of 10 μM to each well from column 3 to column 22 of each plate. Positive and negative controls were added to additional wells. Cells were incubated for about 6 days at 37 degrees with 5% CO2.
(§2) Flow Cytometry. On Day 6 of culture, cells were stained with a fixable viability marker and fluorophore-conjugated antibodies: CD3, CD4, CD8, CD45RA, CD45RO, CD62L, CCR7, CD27, and CD122 (BD Biosciences, San Jose, CA; and BioLegend, San Diego, CA). Fluorescent absolute counting beads (Spherotech, Lake Forest, IL) were added just prior to acquisition. Data acquisition was performed on a BD Fortessa X-20 (BD Biosciences) and data were analyzed using Treestar software (FlowJo, Ashland, OR) and Spotfire (Tibco, Boston, MA).
(§3) These cells are characterized by expression of CCR7 and CD62L. Therefore, cells co-expressing both of these identifying markers were evaluated. Within the viable CD4+ population and viable CD8+ population, the percent of cells co-expressing CCR7 and CD62L was determined. The expression of either CD62L or CCR7 on T cells, as indicative of the desired T cell subsets, have been described as having favorable functional characteristics for CAR-T cell therapy, and potentially other adoptive T cell therapies.
(§4) The number of events in each of these gates relative to the number of absolute counting beads in each sample was calculated, defining a relative measure of the absolute number of naïve, stem cell memory, or central memory T cells within the CD4+ and/or CD8+ populations. A z-Score relative to the screened compound samples within each 384-well plate was calculated for each of these four values: 1) percent CCR7+CD62L+ in CD4+, 2) percent CCR7+CD62L+ in CD8+, 3) absolute relative number of CCR7+CD62L+ in CD4+, and 4) absolute relative number of CCR7+CD62L+ in CD8+(FIGS. 1A and 1i). Z-scores were also calculated for the percent viability of all cells within each sample and the relative absolute number of cells within each sample. A “Z-Score” is a statistical measurement of a score's relationship to the mean in a group of scores. A Z-score of 0 means the score is the same as the mean. A Z-score can also be positive or negative, indicating whether it is above or below the mean and by how many standard deviations.

viable CD4+ population = assay: In vitro T cell culture compound screen, flow cytometry for cells co-expressing CCR7 and CD62L in CD4+ cells; type: cell-based, human; conditions: 10 μM, about 6 days; for CD4 Hit: anti-CD3/anti-CD28 beads, hit criteria: Z-score > +2 for percent or relative absolute number of CCR7+CD62L+ cells; for number or ratio of cells co-expressing CCR7 and CD62L: viable CD4+ population
From the text: as §1, §2, §3, §4

K562-CD19 = assay: Secondary tumor rechallenge of mice that survived primary tumor challenge; type: in vivo, NSG mice; conditions: 21 day post challenge with secondary tumor
Nalm-6-luc = assay: In vivo tumor clearance by compound-treated CAR-T cells in tumor-bearing NSG mice; conditions: 0.2×10^6 CD4 and CD8 CAR-T cells 1:1, retroorbital, one week after tumor injection
Description: CAR-T cells were generated from CD4+ and CD8+ T cells that were separately activated and expanded in vitro. The cells were transduced with the CAR-2 construct (FIG. 2) one day after activation and then replated into 24-well GREX plates with or without the compounds. Half the media was replaced every two days thereafter until harvest one week post-activation. One week after tumor injection, the NSG mice were treated with 0.2×10^6 CD4 and CD8 CAR-T cells mixed at a 1:1 ratio via retroorbital injection. The mice were imaged periodically to determine tumor burden.

CD8+ T-cells [1] = assay: Gene panel expression changes on Affymetrix human transcriptome arrays; type: cell-based; conditions: fold change relative to vehicle treatment
Description: In order to perform these studies, isolated CD8 T cells were activated in bulk on day 0 using CTS (Cell Therapy Systems) Dynabeads™ CD3/CD28 (Thermo Fisher Scientific, Waltham, MA) in T cell media supplemented with IL-2. On day 1, cells were transduced with the CAR Construct 1 shown in FIG. 2 and cell density was adjusted to 0.5×10^6/ml and 10^6 cells were seeded into 12 well plates in the presence of vehicle, 20 nM rapa, 10 μM dmPGE2 or both compounds at the same concentrations. On day 4, cells were transferred into 6-well plates and 2 ml of media was added to each well. On day 6 another 2 ml of media was added to each well.
The RNA was analyzed on Affymetrix human transcriptome arrays and fold changes (relative to vehicle treatment) of the genes in the panel were determined.

CD8 CAR-T cells = assay: Exhaustion marker (PD-1, Tim-3) expression on CAR-T cells by flow cytometry; type: cell-based, human; conditions: 20 nM rapa, 10 μM dmPGE2 or both; two donors; relative to vehicle
From the text: T cell dysfunction due to ‘exhaustion’ is a state that can preclude adequate control of cancer or infection.

CD8+ T-cells [2] = assay: Genome-wide expression on Human Transcriptome Array microarray chips; conditions: 20 nM rapa, 10 μM dmPGE2 or both
Description: (§5) In order to perform these studies, isolated CD8 T cells were activated in bulk on day 0 using CTS (Cell Therapy Systems) Dynabeads™ CD3/CD28 (Thermo Fisher Scientific, Waltham, MA) in T cell media supplemented with IL-2. On day 1, cells were transduced with the CAR Construct 1 shown in FIG. 2 and cell density was adjusted to 0.5×10^6/ml and 10^6 cells were seeded into 12 well plates in the presence of vehicle, 20 nM rapa, 10 μM dmPGE2 or both compounds at the same concentrations. On day 4, cells were transferred into 6-well plates and 2 ml of media was added to each well. On day 6 another 2 ml of media was added to each well. On day 8, cells were analyzed on a flow cytometer for cell surface expression of CD27.

CD8 T cells = assay: CD27 cell surface expression on CAR-transduced CD8 T cells by flow cytometry; type: cell-based, human; conditions: 20 nM rapa, 10 μM dmPGE2 or both; day 8; two donors; relative to vehicle (DMSO)
Description: as §5

Nalm6 tumor cells = assay: In vitro serial killing assay of CAR-T cells co-cultured with tumor cells; type: cell-based, human; conditions: three rounds of in vitro killing
From the text: An in vitro serial killing assay, where CAR-T cells are allowed to “clear” tumor cells in vitro over multiple rounds, is a model that can assess CAR-T expansion in the presence of tumor cells that express the antigen recognized by the CAR. […] After thawing, the CAR-T cells were co-cultured with Nalm6 tumor cells that express endogenous CD19 and transgenic mKate2, a far-red fluorescent protein. Expression of eGFP in the CAR-T cells and mKate2 in the Nalm6 target cells allows easy and reliable identification and counting of both cell types in the serial killing assay. Prior to starting each round of killing, cell numbers were adjusted so that the same ratio of CAR-T cell to Nalm6 target cell was maintained across the CAR-T cell cultures generated from different compound treatments.

Compound	CD8 Hit (viable CD8+ population)	number or ratio of cells co-expressing CCR7 and CD62L (viable CD8+ population)	CD4 Hit (viable CD4+ population)	further results
2-Naphthacenecarboxamide, 7-chloro-4-(dimethylamino)-1,4,4a,5,5a,6,11,12a-octahy	CD8	increased		
CCC(CO)Nc1nc(NCc2ccccc2)c2ncn(C(C)C)c2n1 (stereo in doubt) [Roscovitine, (S)-Isomer]		increased	CD4	
CCCc1c(-c2ccc(O)cc2)nn(-c2ccc(O)cc2)c1-c1ccc(O)cc1 [1,3,5-tris(4-hydroxyphenyl)-4-propyl-1H-pyrazole]		increased	CD4	
N.S=C(S)N1CCCC1 [1-Pyrrolidinecarbodithioic acid, ammonium salt]		increased	CD4	
Nc1ncn([C@@H]2O[C@H](CO)[C@@H](O)[C@H]2O)c(=O)n1 [5-Azacytidine]	CD8	increased	CD4	number or ratio of cells co-expressing CCR7 and CD62L (viable CD4+ population): increased
Sc1ncnc2nc[nH]c12 [6-Mercaptopurine]	CD8	increased	CD4	number or ratio of cells co-expressing CCR7 and CD62L (viable CD4+ population): increased
Oc1c(Cl)cc(Cl)c2cccnc12 [8-Quinolinol,5,7-dichloro-]	CD8	increased	CD4	number or ratio of cells co-expressing CCR7 and CD62L (viable CD4+ population): increased
Oc1c(I)cc(Cl)c2cccnc12 [8-Quinolinol,5-chloro-7-iodo-]	CD8	increased	CD4	number or ratio of cells co-expressing CCR7 and CD62L (viable CD4+ population): increased
CC[n+]1c(/C=C/C=C2/N(C)c3ccccc3C2(C)C)sc2ccccc21.[I-] [AC-93253 iodide]	CD8	increased	CD4	number or ratio of cells co-expressing CCR7 and CD62L (viable CD4+ population): increased
COc1ccc(-c2cc3nccn3c(Nc3ncccc3C(N)=O)n2)cc1OC [BAY 61-3606]		increased	CD4	
COc1cc2nc(N3CCCN(C)CC3)nc(NC3CCN(Cc4ccccc4)CC3)c2cc1OC [BIX01294]		increased	CD4	
CC[N+](C)(C)c1cccc(O)c1 [Edrophonium chloride]	CD8	increased		
C[C@]12CC[C@@H]3c4ccc(O)cc4C[C@@H](CCCCCCCCC[S+]([O-])CCCC(F)(F)C(F)(F)F)[C@H]3[C@@H]1CC[C@@H]2O (some centres unmarked) [Fulvestrant]	CD8	increased		
CC(C)C1CCC2(CO2)C2C(=O)OCC(C(=O)O)=CC12 (centres unmarked) [Heptelidic acid]	CD8	increased	CD4	number or ratio of cells co-expressing CCR7 and CD62L (viable CD4+ population): increased
O=C(N/N=C/c1ccc([N+](=O)[O-])o1)c1ccc(O)cc1 [Nifuroxazide]	CD8	increased		
C=CCc1cccc(/C=N/NC(=O)CN2CCN(Cc3ccccc3)CC2)c1O [PAC-1]		increased	CD4	
Oc1cccc(-c2nc(N3CCOCC3)c3oc4ncccc4c3n2)c1 [PI-103]	CD8		CD4	mice with no detectable tumor (K562-CD19): 60%
C=CC1=C(C)c2cc3[nH]c(cc4nc(cc5[nH]c(cc1n2)c(C)c5CCC(=O)O)C(CCC(=O)O)=C4C)c(C)c3C=C [Protoporphyrin IX disodium]		increased	CD4	
CN(C)c1ccc(C=C2C(=O)Nc3ccccc32)cc1 [SU 4312]	CD8	increased		
CN[C@H]1CC[C@@H](c2ccc(Cl)c(Cl)c2)c2ccccc21 [Sertraline]	CD8		CD4	
Nc1cccc(-c2cc3c(Oc4cccc(O)c4)ncnc3[nH]2)c1 [TWS119]				tumor clearance / tumor control by treated CAR-T cells (Nalm-6-luc): minimal tumor control
CCCc1nc2c(C)cc(-c3nc4ccccc4n3C)cc2n1Cc1ccc(-c2ccccc2C(=O)O)cc1 [Telmisartan]		increased	CD4	
CC(C)(C)c1ccc(C(O)CCCN2CCC(C(O)(c3ccccc3)c3ccccc3)CC2)cc1 (centres unmarked) [Terfenadine]		increased	CD4	
C/C=C(/C)C(=O)O[C@H]1C(C)=C2[C@H]([C@@H]1OC(=O)CCCCCCC)[C@@](C)(OC(C)=O)C[C@H](OC(=O)CCC)[C@@]1(O)[C@H]2OC(=O)[C@@]1(C)O [Thapsigargin]	CD8	increased		
O=C(O)Cc1cc(I)c(Oc2ccc(O)c(I)c2)c(I)c1 [Tiratricol]	CD8	increased	CD4	number or ratio of cells co-expressing CCR7 and CD62L (viable CD4+ population): increased
NC1CCN(c2nc3c(cc2F)c(=O)c(C(=O)O)cn3-c2ccc(F)cc2F)C1 (centres unmarked) [Tosufloxacin hydrochloride]		increased	CD4	
N#CC(=C(/N)Sc1ccccc1N)/C(C#N)=C(\N)Sc1ccccc1N [U0126]		increased	CD4	tumor clearance / tumor control by treated CAR-T cells (Nalm-6-luc): minimal tumor control
CCCCC(C)(C)[C@H](O)/C=C/[C@H]1[C@H](O)CC(=O)[C@@H]1C/C=C\CCCC(=O)O [dmPGE2, 16,16-dimethyl Prostaglandin E2]				BLIMP-1 expression (CD8+ T-cells [1]): slightly upregulated; PD-1 expression (CD8 CAR-T cells): decreased; Tim-3 expression (CD8 CAR-T cells): no effect; total number of genes down-regulated more than 2 fold compared to vehicle control (CD8+ T-cells [2]): 38; total number of genes up-regulated more than 2 fold compared to vehicle control (CD8+ T-cells [2]): 71; CD27 expression, relative MFI (vehicle defined as 1) (CD8 T cells): no increase; clearing of target cells over time by previously treated CAR-T cells (Nalm6 tumor cells): successfully cleared target cells
CO[C@H]1C[C@@H]2CC[C@@H](C)[C@@](O)(O2)C(=O)C(=O)N2CCCC[C@H]2C(=O)O[C@H]([C@H](C)C[C@@H]2CC[C@@H](O)[C@H](OC)C2)CC(=O)[C@H](C)/C=C(\C)[C@@H](O)[C@@H](OC)C(=O)[C@H](C)C[C@H](C)/C=C/C=C/C=C/1C [rapamycin]				total number of genes down-regulated more than 2 fold compared to vehicle control (CD8+ T-cells [2]): 284; total number of genes up-regulated more than 2 fold compared to vehicle control (CD8+ T-cells [2]): 215; CD27 expression, relative MFI (vehicle defined as 1) (CD8 T cells): approximately 2 fold
Diethylenetriaminepentaacetic acid, penta sodium	CD8	increased	CD4	number or ratio of cells co-expressing CCR7 and CD62L (viable CD4+ population): increased
